Here are results for two compounds from EP0913399A1, “Silver -2-mercapto sodium benzoate pharmaceutical compound and process for obtaining the same” (Korban Medical S.a.s. di Longhetti Gianna & C., priority 1997, dated 1999).

Data set [1] has as its system tested organism. Description: MIC comparison of equivalent ionic doses of Ag^+ from thiometal and from nitrate; antibacterial action of the anion. It is filed as cell-based.
A short description of data set [2]: solubility. It is filed as physicochemical.
Data set [3] is described as follows: effects to the skin (photosensitization, irritating, caustic).

Each structure is given as a SMILES string. Counter-ions that a name gives are not always drawn.

With `O=C(O)c1ccccc1[S][Ag]` [silver-2-mercapto sodium benzoate], the “activity in MIC in favour of the thiometal” value in data set [1] (comparison of equivalent ionic doses of Ag^+ from thiometal and from nitrate, variable depending on the tested organism) is listed as -1.6 to -50 mcg/ml. The Solubility entry in data set [2] (DMSO) is “moderately soluble”; in data set [2] (absolute ethanol), “insoluble”; in data set [2] (acetone), “insoluble”; in data set [2] (ether), “insoluble”; in data set [2] (water (cold)), “soluble”. Moreover, in data set [3], the “caustic effects to the skin” value is “does not cause”. In data set [3], the “irritating effects to the skin” value was “does not cause”. Further, the photosensitization result in data set [3] is “does not cause”.

As for `O=C(O)c1ccccc1S` [mercapto sodium benzoate anion, sodium salt of the 2-mercaptobenzoic acid, reference compound], the antibacterical action entry in data set [1] is “does not develop an antibacterical action”.
